# Several values for one entry are separate records, joined by “and”; a condition that tells them apart may be missing. Identical values can stand only once. Like-named read-outs stand apart in the source and are kept apart here. Marks after values point to notes of the source that are not given here.
# Legend:
# [1] = system: L3.6pl human pancreatic tumors; assay: Therapy of L3.6pl human pancreatic tumors in nude mice; assay type: in vivo, mouse; details: CPT-11 100 mg/kg i.p. once a week +/− oral JBT 3002 (tablet) 0.05 mcg/dose
# Method: Table 19 (A, B, C). Therapy of human pancreatic carcinoma liver metastasis. The pancreas of nude mice were injected with 1×10^6 viable human pancreatic cancer L3.6pl cells. […] This regimen was repeated on a weekly basis for 3 weeks. The mice were killed. Pancreatic tumors, liver metastases, and lymph node metastasis were quantified.
# [2] = system: C57BL/6 mice; assay: Prevention of CPT-11 induced intestinal damage and morbidity by oral immunomodulator; assay type: in vivo, mouse; details: for Death / Morbidity: 4 daily i.p., oral saline or free-form MTP-PE 100 ug/dose for one week before
# Method: Experimental Design and Methods. […] Tissue was harvested 7 days after the last injection (small intestine and colon distal to the cecum). Histology was prepared. Some mice were monitored for the presence of drug toxicity.
# Example 6 has shown that 100, 150, and 200 mg/kg at 4 consecutive i.p. administrations are highly toxic to C57BL/6 mice.
# [3] = system: CT-26 colon cancer liver metastasis; assay: Combination therapy of MTP-PE and CPT-11 for CT-26 colon cancer liver metastasis
# [4] = system: CT-26P colon carcinoma; assay: Combination therapy of CT-26P colon carcinoma with CPT-11 and oral liposomal JBT3002; assay type: in vivo, mouse; details: day 17; for Liver Weights, mean / Liver Weights, single mice: alone or + oral liposomal JBT3002 1 μg/dose
# Method: This course of therapy was repeated weekly for about three weeks prior to tissue harvest. Experimental Groups/Procedures: 40 Balb/c mice were divided into 8 groups of 5 mice each. On day 0, the spleens of the mice were injected with 15,000 cultured CT-26P cells. The groups were then treated as follows: The spleens of Balb/c mice were injected with 15,000 cultured CT-26P colon carcinoma cells on day 0. […] Treated mice received two weeks of chemotherapy and three weeks of the macrophage activator. Tissues were harvested on day 17. The spleens and livers were weighed, the extent of metastasis was graded (denoted below) and histology prepared.
# [5] = Body weight change and deaths during therapy of CT-26 bearing BALB/c mice; assay type: in vivo, mouse
# [6] = system: IL-15; assay: Ileum and liver lesion histology, BrdUrd and IL-15 expression after JBT 3002 and CPT-11; assay type: in vivo, mouse
# Method: BALB/c mice were injected with CT-26 colon cancer cells into the spleen. […] Four days after the last injection of CPT-11, some mice were killed and their ileum was harvested and prepared for histology, immunohistochemistry, and molecular biology analyses.
# [7] = system: CT-26 colon carcinoma; assay: Therapy of experimental liver metastasis of CT-26 colon carcinoma with CPT-11 and oral JBT 3002
# [8] = system: C57BL/6 mice
# [9] = CPT-11 50 mg/kg, oral saline or MTP-PE
# [10] = Table 10, oral MLV-HBSS, CPT-11 100 mg/kg i.p. once a week, day 23
# [11] = Table 11, CPT-11 100 mg/kg i.p. once a week alone, day 24
# [12] = Table 12, oral MLV-HBSS, CPT-11 100 mg/kg 4 daily i.p. (intensive), day 14
# [13] = Table 13, oral MLV-HBSS, CPT-11 100 mg/kg i.p. once a week, day 23
# [14] = Table 14, MLV-JBT 3002 1.0 μg/dose or FF-JBT 3002 0.05 μg/dose oral 3 days, CPT-11 100 mg/kg 4 daily i.p., day 21
# [15] = Table 15, oral JBT 3002 0.05 μg/dose 3 consecutive days and/or CPT-11 100 mg/kg 4 daily i.p., day 21
# [16] = Table 16, oral JBT3002 0.05 μg dose thrice weekly 3 weeks and/or CPT-11 100 mg/kg i.p. once a week, day 24
compound,measurement,setting,value
"CCc1c2c(nc3ccc(OC(=O)N4CCC(N5CCCCC5)CC4)cc13)-c1cc3c(c(=O)n1C2)COC(=O)[C@]3(O)CC [CPT-11, Irinotecan]",Incidence LN met,[1]; 31 days,7/10
same,Incidence WT/PC,[1]; 31 days,0/10
same,Incidence liver met,[1]; 31 days,0/10
same,"Tumor weight, Average",[1]; 31 days,152.10 mg
same,"Tumor weight, Max",[1]; 31 days,375 mg
same,"Tumor weight, Median",[1]; 31 days,117.5 mg
same,"Tumor weight, Min",[1]; 31 days,0 mg
same,tumor weight (range),[1]; 31 days,(0-375) mg
same,"Tumor weight, single animals","[1]; 31 days after tumor cell injection, 100 mg/kg",80 mg and 375 mg and 241 mg and 0 mg (2×) and 98 mg and 318 mg and 137 mg and 205 mg and 67 mg
same,Death,[2]; CPT-11 100 mg/kg,0/10
same,Morbidity,[2]; CPT-11 100 mg/kg,8/10
same,damage to intestinal tissue,"[2]; CPT-11 100 mg/kg, oral MTP-PE 100 μg/dose three consecutive days per week, C57BL/6 mice",induces loss of structural integrity of duodenal and large colon crypts
same,Death,[2]; CPT-11 150 mg/kg,6/10
same,Morbidity,[2]; CPT-11 150 mg/kg,10/10
same,Death,[2]; CPT-11 200 mg/kg,9/10
same,Morbidity,[2]; CPT-11 200 mg/kg,10/10
same,GI toxicity (histology of intestinal villi and lumen),"[2]; oral PBS or MTP-PE 100 μg/dose 3×/week for 3 weeks, then 4 i.p. injections of CPT-11",severe damage to the intestinal villi and lumen
same,intestinal toxicity (histology),"[2]; oral saline or JBT3002 0.1, 1.0 and 10 μg/dose in PC liposomes, then CPT-11 100 mg/kg i.p. 4 days",induced severe toxicity
same,Liver Median no. metastases,[3]; [9],30
same,Liver weight,[3]; [9],2.0 ± 0.3
same,Spleen Tumor size,[3]; [9],8.3 ± 2.0 mm
same,Spleen Weight,[3]; [9],0.6 ± 0.2 g
same,Death of mice,"[3]; CPT-11 100 mg/kg, oral saline",------------------All mice died.------------------------
same,tumor burden of the liver,"[3]; CPT-11 25-100 mg/kg, CT-26P injected into the spleen",dose-dependent reduction in tumor burden of the liver
same,"Spleen Weights, mean","[4]; CPT-11 25 mg/kg once a week, alone or + oral JBT3002 1 μg/dose in PC liposomes 3x/week",1.284 ± 0.257 grams
same,"Spleen Weights, single mice","[4]; CPT-11 25 mg/kg once a week, alone or + oral JBT3002 1 μg/dose in PC liposomes 3x/week, 25 mg/kg",1.486 grams and 0.888 grams and 1.056 grams and 1.588 grams and 1.403 grams
same,"Liver Weights, mean",[4]; CPT-11 25 mg/kg once a week,1.670 ± 0.301 grams
same,"Liver Weights, single mice","[4]; CPT-11 25 mg/kg once a week, 25 mg/kg",1.416 grams and 1.460 grams and 2.246 grams
same,"Spleen Weights, mean","[4]; CPT-11 50 mg/kg once a week, alone or + oral JBT3002 1 μg/dose in PC liposomes 3x/week",0.746 ± 0.561 grams
same,"Liver Weights, single mice","[4]; CPT-11 50 mg/kg once a week, 50 mg/kg",1.407 grams and 1.205 grams and 1.525 grams
same,"Spleen Weights, mean","[4]; CPT-11 100 mg/kg once a week, alone or + oral JBT3002 1 μg/dose in PC liposomes 3x/week",0.216 ± 0.110 grams
same,"Liver Weights, mean",[4]; CPT-11 100 mg/kg once a week,1.203 ± 0.065 grams
same,"Liver Weights, single mice","[4]; CPT-11 100 mg/kg once a week, 100 mg/kg",1.105 grams and 1.252 grams and 1.172 grams and 1.293 grams and 1.196 grams
same,ΔBW,[5]; [10],−1.7%
same,ΔBW,[5]; [11],−1.5%
same,ΔBW,[5]; [12],−17.6%
same,ΔBW,[5]; [13],1.2%
same,ΔBW,"[5]; Table 14, MLV-JBT 3002 1.0 μg/dose or FF-JBT 3002 0.05 μg/dose oral 3 days, CPT-11 100 mg/kg 4 daily i.p., day not given",−24.0%
same,Mice that died during therapy,"[5]; Table 15, CPT-11 100 mg/kg 4 daily i.p. alone, 10 mice, 100 mg/kg",7 of 10
same,intestinal architecture of ileum (H&E),"[6]; CPT-11 100 mg/kg, JBT 3002 0.05 μg/dose",produces disruption of the intestinal architecture
same,expression of IL-15 in the ileum,"[6]; mouse, in vivo",significant decrease in expression of IL-15
same,Liver metastasis Incidence,[7]; [10],5/5
same,Liver weight,[7]; [10],1.8 ± 0.3^b g
same,Spleen (primary) Incidence,[7]; [10],5/5
same,Liver metastasis Incidence,[7]; [11],5/5
same,Liver weight,[7]; [11],1.7 ± 0.3^c g
same,Spleen (primary) Incidence,[7]; [11],5/5
same,Liver metastasis Incidence,[7]; [12],2/5
same,Liver weight,[7]; [12],1.2 ± 0.1 g
same,Spleen (primary) Incidence,[7]; [12],5/5
same,Liver metastasis Incidence,[7]; [13],5/5
same,Liver weight,[7]; [13],2.6 ± 0.3 g
same,Spleen (primary) Incidence,[7]; [13],5/5
same,Liver metastasis Incidence,[7]; [14],0/5^b
same,Liver weight,[7]; [14],1.2 ± 0.2 g
same,Spleen tumor Incidence,[7]; [14],5/5^b
same,Liver metastasis Incidence,[7]; [15],1/10^b
same,Liver weight,[7]; [15],"1.9 ± 0.3^c,d g"
same,Spleen tumor Incidence,[7]; [15],6/10^b
same,Liver metastasis Incidence,[7]; [16],8/10
same,Liver weight,[7]; [16],2.0 ± 0.9^c g
same,Spleen tumor Incidence,[7]; [16],7/10
same,Survival,"[8]; 100 mg/kg CPT-11 i.p. Day 1-4, C57BL6 mice",5/5
same,Survival,"[8]; 150 mg/kg CPT-11 i.p. Day 1-4, C57BL6 mice",3/5
same,Survival,"[8]; 200 mg/kg CPT-11 i.p. Day 1-4, C57BL6 mice",0/5
same,deaths,"[8]; CPT-11 50, 75 or 100 mg/kg once a day for 4 days (i.p.)",None of the injected mice died
same,lethal dose,"[8]; i.p. Day 1-4, C57BL6 mice",200 mg/kg
